Assays:
UGT71E5 = target: T1, UGT71E5 (Carthamus tinctorius, UniProt A0A1P8C3B1); assay: HPLC-MS conversion; format: biochemical; conditions: 0.4 mmol/L acceptor, 0.8 mmol/L UDP-Glc, pH 7.4
T1 sequence (A0A1P8C3B1 1-480): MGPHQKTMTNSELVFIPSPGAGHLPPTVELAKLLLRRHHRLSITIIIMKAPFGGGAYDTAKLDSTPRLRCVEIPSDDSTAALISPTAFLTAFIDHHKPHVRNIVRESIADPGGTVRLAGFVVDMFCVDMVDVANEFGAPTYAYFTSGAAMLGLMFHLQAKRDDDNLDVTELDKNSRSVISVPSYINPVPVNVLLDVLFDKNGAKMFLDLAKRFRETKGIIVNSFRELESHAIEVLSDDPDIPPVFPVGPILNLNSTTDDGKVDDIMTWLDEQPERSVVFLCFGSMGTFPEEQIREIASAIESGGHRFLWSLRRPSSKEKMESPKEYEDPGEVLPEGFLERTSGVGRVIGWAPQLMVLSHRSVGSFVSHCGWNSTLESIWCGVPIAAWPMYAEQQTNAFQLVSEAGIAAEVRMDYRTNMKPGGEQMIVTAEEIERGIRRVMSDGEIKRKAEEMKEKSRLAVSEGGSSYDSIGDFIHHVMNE

DoBBS8 = assay: HPLC quantification of dihydroresveratrol, nonlinear regression; format: biochemical, Dendrobium officinale; conditions: malonyl-CoA 2.0 mmol/L fixed; 30 °C, 30 min

| Km (DoBBS8) | SMILES | conversion rate (UGT71E5) |
| --- | --- | --- |
|  | Oc1ccc(CCc2cc(O)cc(O)c2)cc1 [compound 1, dihydro-resveratrol] | 94% |
| 61.8 µM | CC(C)(COP(=O)(O)OP(=O)(O)OC[C@H]1O[C@@H](n2cnc3c(N)ncnc32)[C@H](O)[C@@H]1OP(=O)(O)O)[C@@H](O)C(=O)NCCC(=O)NCCSC(=O)CCc1ccc(O)cc1 [p-hydroxyphenylpropionyl-CoA] |  |

— article PMC10149896 (Acta Pharmaceutica Sinica. B, 2022)
